System: HIV
Assay: Testing virostatic activity of adefovir diphosphate 8 in TZM-bl cell culture infected with HIV
Assay type: cell-based, Human immunodeficiency virus
Source text: The subject of testing was the compound of structure formula 8 (adefovir diphosphate) which is a known (Mulato & Cherrington, 1997) active metabolite—the reverse transcriptase inhibitor—in inhibiting the replication of viral DNA of HIV. In determining activity of […], compound 7 (tenofovir), which is a clinically approved drug used for the treatment of HIV, was used as a standard. […] Then the solution of the complex was removed and the infected cells were overlaid with medium with serum and incubated at 37° C. Parallel control experiments were performed (without infection; infection without active substance; 10 μmol·l^−1 tenofovir 7 throughout incubation; compound 8 without a carrier).

Nc1ncnc2c1ncn2CCOCP(=O)(O)OP(=O)(O)OP(=O)(O)O [Compound 8, adefovir diphosphate]
Virostatic activity compared with tenofovir 7 standard (10 μmol·l−1 complex of compound 8 and transporter 6c in buffer A for 10 minutes, three days of incubation, standard 10 μmol·l−1 tenofovir 7 throughout incubation, FIG. 7): identical with the control experiments where a solution of compound 7 was present in the medium throughout the incubation | Activity relative to drug 7, concluded from the shorter time of application (compound 8 applied using the 6c carrier for 10 min vs compound 7 present throughout incubation): more active than the clinically used drug 7

Source: patent US11168153B2, “Cyclodextrin-based transporter of nucleoside triphosphate transporter across the cell membrane, its preparation and use” (USTAV ORGANICKE CHEMIE A BIOCHEMIE AV CR, V.V.I., priority 2016, dated 2021)
